Legend:
Type in all cases: cell-based, human
[1] = tested on: DMS114 and SHP77 cell lines; assay: Microarray differential gene expression analysis; conditions: 150 or 300 nM, 6 h
Experimental: For each cell line, four sets of microarray experiments were performed, with each set consisting of control and treated cells exposed for 6 h either to DMSO or COTI-2 at 150 or 300 nM total concentration. Total RNA was prepared with RNeasy (Qiagen) and converted to Cy3 or Cy5-labelled cRNA according to procedures provided with the linear amplification kit from Agilent Technologies. Two hundred […] of labeled cRNA were hybridized to 4×44K Agilent whole genome microarrays, the arrays were washed, scanned and relevant features were extracted according to the manufacturer's protocol and further analyzed as described by Wolber et al. (Methods in Enzymology 410:28-57), which is incorporated herein by reference in its entirety.
Cy5 and Cy3 features were extracted and normalized by median centering the expression values relative to the median value of the 8 hybridization experiments performed on each microarray slide. […] Statistically significant changes in gene expression between treatment and control groups were determined by SAM analysis using TIGR software from The Institute of Genomic Research or by t tests with false discovery correction. Only genes that were differentially expressed in all 4 biologically-independent groups were further analyzed. […] The intersection of common genes was determined using GeneVenn (http://mcbc.usm.edu/qenevenn/genevenn.htm).

HeLa cells = assay: Sensitivity to COTI-2 after PTEN siRNA knockdown (alamar Blue), HeLa; conditions: 48 h post-transfection
Experimental: Briefly, HeLa and MCF-7 cells were transfected with 100 nM PTEN siRNA or control non-targeted siRNA at 48 or 144 h prior to exposure to various concentrations of COTI-2.
To assess the capacity of transient siRNA transfection to alter the ability of cells to proliferate in the presence or absence of COTI-2, HeLa or MCF-7 cells (both PTEN-positive) were plated in T25 flasks and transfected 24 h later with PTEN siRNA or non-targeting control siRNA (100 nM in both cases), using Oligofectamine Reagent (Invitrogen) according to the manufacturer's instructions and as previously described (J Pharmacol Exp Ther, 322:123-132). […] PTEN and 18S rRNA mRNA levels were determined by semi-quantitative reverse transcription PCR. […]
For determination of drug sensitivity, HeLa and MCF-7 cells (transfected with PTEN siRNA or control, non-targeted siRNA 48 or 144 hours prior) were re-plated in 96-well plates (VWR, Mississauga, ON, Canada) at 1700 (MCF-7) and 1200 (HeLa) cells per well in a volume of 100 μl of DMEM+10% FBS. […] Cells were then grown for 4 days, and viable cell numbers were assessed by the alamar Blue fluorescence assay using a Wallac Victor^2 multilabel counter (PerkinElmer Wallac, Gaithersburg, Md.). […]

H226 = assay: Flow cytometric analysis of cell death (Annexin V/PI), H226; conditions: H226, 15 μM, 48 h
Experimental: All cell lines were grown and exposed to various concentrations of COTI-2 or vehicle only control and the percentage of dead or dying cells were determined 24 and 48 h post-exposure by Annexin V and propidium iodide.
HL-60 (human promyelocytic leukemia) cells were grown as non-adherent cells in flasks in RPMI 1640 medium supplemented with 10% FBS. H226 (human non-small cell lung cancer) cells were grown in Eagle's MEM supplemented with 10% FBS. Both cell lines were obtained from the American Type Culture Collection (ATCC)(Rockville, Md.) and maintained at 37° C. in a humidified 5% CO2 atmosphere.
Cells were plated in 25-cm^2 flasks and treated with COTI-2 (0-100 μM) added from a stock DMSO/DMEM solution such that DMSO concentrations never exceeded 0.5%. Control cells were treated with stock DMSO/DMEM. […] Resuspended cells (100 μl) were incubated in the dark with 10 μl propidium iodide (PI, 50 ng per ml; Sigma, St. Louis, Mo.) plus Annexin V-FITC (25 ng per ml, green fluorescence; BD Biosciences, Mississauga, Ontario). […] Samples were analyzed for combined Annexin V/PI staining (to assess dead plus apoptotic cells) using a Beckman Coulter EPCS XL-MCL flow cytometer (Beckman Coulter, Hileah, Fla.) and the data were analyzed with CellQuest software.

S=C(N/N=C1/CCCc2cccnc21)N1CCN(c2ccccn2)CC1 [COTI-2]
AKT gene expression [1]: down-regulated
Rictor (mTOR-Rictor) expression [1]: down-regulation of Rictor
resistance to COTI-2 after PTEN siRNA transfection (HeLa cells): significant increase in the resistance
induction of apoptosis and death (H226): approximately 40%

Source: US8138191B2, “Inhibitor compounds and cancer treatment methods” (Critical Outcome Technologies Inc., priority 2007, dated 2012)
